Data published in patent publication US20080219922A1, “Alzheimer's Disease Imaging Agents” (priority 2005, published 2008).

Tests used:
[1] = Partition coefficient determination (1-octanol/phosphate buffer pH 7.4); assay type: physicochemical; conditions: 1-octanol / 0.02 M sodium phosphate buffer pH 7.4
Description: Measurement of distribution coefficient of [^18F]tracer was performed based on the method described by Wilson et al. [Labelled Compd. Radiopharm., 42:1277-1288 (1999)] using 0.02 M sodium phosphate buffer at pH 7.4 and 1-octanol. Basically, the test tubes containing ˜20 μCi of the radiotracer and 2 mL each of 1-octanol and phosphate buffer were vortexed for 10 min at room temperature and then centrifuged for 5 min. Samples (0.5 mL) from 1-octanol and buffer layers were counted in a Packard Cobra II auto-gamma counter (Perkin-Elmer, Downers Grove, Ill.) and decay corrected. The measurement was repeated three times. The log P7.4 value was calculated as follows: log P7.4 log [counts in octanol phase/counts in buffer phase].

[2] = rhesus monkey, in vivo, iv
Description: In order to assess brain uptake and clearance, FZ 202-1 and FZ 202-2 were radiolabeled with fluorine-18. The kinetics of fluorine-18 labeled FZ 202-1 and FZ 202-2 in brain were determined by microPET in rhesus monkeys.
PET study was performed in a male rhesus monkey weighing 6-10 kg using a Concorde MicroPET P4 imaging system. The animal was initially anesthetized with an intramuscular injection of Telazol (3 mg/kg), intubated, and then maintained on a 1% isoflurane/5% oxygen gas mixture throughout the imaging session. The monkey was placed in the PET scanner and the head was immobilized. Blood pressure, heart and respiratory rates, and expired CO2 and oxygen saturation levels were monitored continuously during the PET study. A transmission scan was obtained with a germanium-68 source prior to the PET study for attenuation correction of the emission data. Brain emission scans were performed following the intravenous administration of [^18F]tracer (5 mCi). Serial dynamic transaxial images were acquired for a total of 120 min and then binned for analysis. Emission data acquired were subject to iterative reconstruction (OSEM, two iterations, 40 subsets) with no pre- or postfiltering to provide images with an isotropic resolution of 3 mm fwhm. […]

[3] = target: T1, amyloid plaques in sections from postmortem AD brains (Homo sapiens, UniProt P05067); test: In vitro film autoradiography of postmortem AD brain sections; assay type: binding
T1 construct: abundant amyloid plaques or deposits composed of amyloid-β(Aβ) peptides; from tissue; host or cells: postmortem brain tissue sections of frontal lobe from an AD patient
T1 sequence (P05067 672-713 limits assumed): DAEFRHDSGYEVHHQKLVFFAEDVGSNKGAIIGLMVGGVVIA
Excerpt: FZ 202-1 in postmortem brain tissue sections of frontal lobe from an AD patient. A: AD tissue+[^18F] FZ 202-1. B: [^18F] […] C: […] [^18F]

Compound | Log P7.4 [1] | radioactivity ratios of peak-to-115 min in cerebellum, frontal cortex and subcortical white matter ([2]; male) | bone uptake of radioactivity in the skull [2] | specific binding after pretreatment with nonradioactive PIB and IMPY ([3]; AD specimen, FIG. 3: +1 mM PIB, +10 mM IMPY) | specific binding to amyloid plaques (plaque labeling) ([3]; postmortem AD brain sections, frontal lobe, film autoradiography)
Cc1cc2nc(-c3ccc(N(C)C)cc3)cn2nc1F [FZ 202-1] | 2.69 |  |  |  | 
Cc1cc(F)nn2cc(-c3ccc(N(C)C)cc3)nc12 [FZ 202-2] | 2.83 |  |  |  | 
CN(C)c1ccc(-c2cn3cc([125I])ccc3n2)cc1 [IMPY, reference compound] | 3.58 |  |  |  | 
Cc1cc2nc(-c3ccc(N(C)C)cc3)cn2nc1F [[^18F]-FZ 202-1] |  | 2.5-4.9 | No bone uptake | eliminated | clearly observed in cortical gray matter, but not in the white matter
